Measurements from the NIST ThermoML archive (doi:10.1007/s10765-010-0737-5).

Assay: xn = mol fraction of the nth substance listed
Settings: Liquid; for viscosity: 101 kPa, Capillary tube (Ostwald / Ubbelohde) method; for mass density: 101.3 kPa

CC(C)(C)Cl [2-chloro-2-methylpropane] + CC(C)OC(C)C
Settings	mass density [kg/m3]	viscosity [mPa·s]
283.15 K, x1 = 0.049	738.51	0.3693
283.15 K, x1 = 0.0996	743.477	0.3746
283.15 K, x1 = 0.1991	753.625	0.386
283.15 K, x1 = 0.3212	766.738	0.4025
283.15 K, x1 = 0.4189	777.752	0.4183
283.15 K, x1 = 0.5148	789.053	0.4365
283.15 K, x1 = 0.6213	802.211	0.4606
283.15 K, x1 = 0.7152	814.386	0.4862
283.15 K, x1 = 0.8138	827.842	0.5182
283.15 K, x1 = 0.9079	841.347	0.555
283.15 K, x1 = 0.9552	848.401	0.5761
283.15 K, x1 = 1	855.249	0.598
288.15 K, x1 = 0.049	733.338	0.3531
288.15 K, x1 = 0.0996	738.271	0.358
288.15 K, x1 = 0.1991	748.35	0.3683
288.15 K, x1 = 0.3212	761.373	0.3827
288.15 K, x1 = 0.4189	772.308	0.3963
288.15 K, x1 = 0.5148	783.527	0.412
288.15 K, x1 = 0.6213	796.59	0.4328
288.15 K, x1 = 0.7152	808.683	0.4549
288.15 K, x1 = 0.8138	822.038	0.4829
288.15 K, x1 = 0.9079	835.446	0.5154
288.15 K, x1 = 0.9552	842.442	0.5342
288.15 K, x1 = 1	849.243	0.5538
293.15 K, x1 = 0.049	728.121	0.3381
293.15 K, x1 = 0.0996	733.024	0.3425
293.15 K, x1 = 0.1991	743.024	0.3515
293.15 K, x1 = 0.3212	755.959	0.3641
293.15 K, x1 = 0.4189	766.815	0.376
293.15 K, x1 = 0.5148	777.959	0.3894
293.15 K, x1 = 0.6213	790.929	0.4075
293.15 K, x1 = 0.7152	802.935	0.4268
293.15 K, x1 = 0.8138	816.186	0.4512
293.15 K, x1 = 0.9079	829.489	0.4796
293.15 K, x1 = 0.9552	836.437	0.4962
293.15 K, x1 = 1	843.191	0.5135
298.15 K, x1 = 0.049	722.867	0.3217
298.15 K, x1 = 0.0996	727.738	0.3258
298.15 K, x1 = 0.1991	737.666	0.3342
298.15 K, x1 = 0.3212	750.506	0.3458
298.15 K, x1 = 0.4189	761.288	0.3564
298.15 K, x1 = 0.5148	772.351	0.3686
298.15 K, x1 = 0.6213	785.231	0.3845
298.15 K, x1 = 0.7152	797.145	0.4014
298.15 K, x1 = 0.8138	810.301	0.4229
298.15 K, x1 = 0.9079	823.502	0.4476
298.15 K, x1 = 0.9552	830.397	0.4619
298.15 K, x1 = 1	837.096	0.4768
303.15 K, x1 = 0.049	717.578	0.304
303.15 K, x1 = 0.0996	722.412	0.308
303.15 K, x1 = 0.1991	732.264	0.3164
303.15 K, x1 = 0.3212	745.013	0.3277
303.15 K, x1 = 0.4189	755.716	0.3379
303.15 K, x1 = 0.5148	766.702	0.3492
303.15 K, x1 = 0.6213	779.484	0.3639
303.15 K, x1 = 0.7152	791.308	0.3791
303.15 K, x1 = 0.8138	804.365	0.3979
303.15 K, x1 = 0.9079	817.467	0.4191
303.15 K, x1 = 0.9552	824.312	0.4313
303.15 K, x1 = 1	830.958	0.4438
308.15 K, x1 = 0.049	712.24	0.2892
308.15 K, x1 = 0.0996	717.039	0.2928
308.15 K, x1 = 0.1991	726.821	0.3006
308.15 K, x1 = 0.3212	739.479	0.3115
308.15 K, x1 = 0.4189	750.102	0.3216
308.15 K, x1 = 0.5148	761.005	0.3327
308.15 K, x1 = 0.6213	773.688	0.3468
308.15 K, x1 = 0.7152	785.436	0.3613
308.15 K, x1 = 0.8138	798.392	0.3787
308.15 K, x1 = 0.9079	811.393	0.398
308.15 K, x1 = 0.9552	818.179	0.4087
308.15 K, x1 = 1	824.772	0.4196
313.15 K, x1 = 0.049	706.856	0.2751
313.15 K, x1 = 0.0996	711.61	0.2783
313.15 K, x1 = 0.1991	721.328	0.2856
313.15 K, x1 = 0.3212	733.893	0.2963
313.15 K, x1 = 0.4189	744.44	0.3061
313.15 K, x1 = 0.5148	755.257	0.3171
313.15 K, x1 = 0.6213	767.848	0.3306
313.15 K, x1 = 0.7152	779.502	0.3436
313.15 K, x1 = 0.8138	792.362	0.3586
313.15 K, x1 = 0.9079	805.256	0.3741
313.15 K, x1 = 0.9552	811.996	0.3824
313.15 K, x1 = 1	818.536	0.3904
